US9505750B2, “5-aminocyclylmethyl-oxazolidin-2-one derivatives” (priority 2007, dated 2016)
Values after ≈ are worked out from the molar mass of the structure shown.

Tested on: M. catarrhalis A894
Assay: MIC determination by microdilution in cation-adjusted Mueller-Hinton Broth (NCCLS)
Type: cell-based
Details: Moraxella catarrhalis, pH 7.2-7.3
Method: These assays have been performed following the description given in “Methods for dilution Antimicrobial Susceptibility Tests for Bacteria that Grow Aerobically, 4th ed.; Approved standard: NCCLS Document M7-A4; National Committee for Clinical Laboratory Standards: Villanova, Pa., USA, 1997”. Minimal inhibitory concentrations (MICs; mg/l) were determined in cation-adjusted Mueller-Hinton Broth (BBL) by a microdilution method following NCCLS guidelines (National Committee for Clinical Laboratory Standards. Methods for Dilution Antimicrobial Susceptibility). The pH of the test medium was 7.2-7.3. All Example compounds were tested against several Gram-positive and Gram-negative bacteria.

Row | Structure (SMILES) | MIC
1 | COc1ccc2nccc([C@@H](O)[C@H](O)C3CCN(C[C@@H]4CN(c5ccc6c(c5)NC(=O)CS6)C(=O)O4)C3)c2n1 (mixture of isomers) [Example 11, 6-((R)-5-{(RS)-3-[(1R,2R)-1,2-dihydroxy-2-(6-methoxy-[1,5]naphthyridin-4-yl)-ethyl]-pyrrolidin-1-ylmethyl}-2-oxo-oxazolidin-3-yl)-4H-benzo[1,4]thiazin-3-one] | 0.125 µg/mL
2 | COc1cnc2cccc(C(O)C3(O)CCN(C[C@@H]4CN(c5ccc6c(c5)NC(=O)CS6)C(=O)O4)CC3)c2n1 (mixture of isomers) [Example 13, 6-((R)-5-{4-hydroxy-4-[(RS)-hydroxy-(3-methoxy-quinoxalin-5-yl)-methyl]-piperidin-1-ylmethyl}-2-oxo-oxazolidin-3-yl)-4H-benzo[1,4]thiazin-3-one] | 0.5 µg/mL
3 | COc1ccc2ncnc(OC3CCN(C[C@@H]4CN(c5cc6c(nn5)OCCO6)C(=O)O4)C3)c2c1 (mixture of isomers) [Example 33, (R)-3-(6,7-dihydro-[1,4]dioxino[2,3-c]pyridazin-3-yl)-5-[(RS)-3-(6-methoxy-quinazolin-4-yloxy)-pyrrolidin-1-ylmethyl]-oxazolidin-2-one] | 0.25 µg/mL
4 | COc1ccc2ncnc(O[C@@H]3CN(C[C@@H]4CN(c5ccc6c(c5)NC(=O)CS6)C(=O)O4)C[C@H]3NC(C)=O)c2c1 (relative stereo) [Example 32, N-{(3R*,4R*)-4-(6-methoxy-quinazolin-4-yloxy)-1-[(R)-2-oxo-3-(3-oxo-3,4-dihydro-2H-benzo[1,4]thiazin-6-yl)-oxazolidin-5-ylmethyl]-pyrrolidin-3-yl}-acetamide] | 0.25 µg/mL (≈ 0.443 µM)
5 | COc1ccc2ncnc(O[C@H]3C[C@@H](CN)N(C[C@@H]4CN(c5ccc6c(c5)NC(=O)CS6)C(=O)O4)C3)c2c1 [Example 15, 6-{(R)-5-[(2S,4S)-2-aminomethyl-4-(6-methoxy-quinazolin-4-yloxy)-pyrrolidin-1-ylmethyl]-2-oxo-oxazolidin-3-yl}-4H-benzo[1,4]thiazin-3-one] | ≤ 0.031 µg/mL
6 | COc1ccc2ncnc(O[C@H]3C[C@@H](CNC(C)=O)N(C[C@@H]4CN(c5ccc6c(c5)NC(=O)CS6)C(=O)O4)C3)c2c1 [Example 17, N-{(2S,4S)-4-(6-methoxy-quinazolin-4-yloxy)-1-[(R)-2-oxo-3-(3-oxo-3,4-dihydro-2H-benzo[1,4]thiazin-6-yl)-oxazolidin-5-ylmethyl]-pyrrolidin-2-ylmethyl}-acetamide] | 0.25 µg/mL (≈ 0.432 µM)
7 | COc1ccc2ncnc(O[C@H]3C[C@@H](Cn4ccnn4)N(C[C@@H]4CN(c5ccc6c(c5)NC(=O)CS6)C(=O)O4)C3)c2c1 [Example 19, 6-{(R)-5-[(2S,4S)-4-(6-methoxy-quinazolin-4-yloxy)-2-[1,2,3]triazol-1-ylmethyl-pyrrolidin-1-ylmethyl]-2-oxo-oxazolidin-3-yl}-4H-benzo[1,4]thiazin-3-one] | 0.063 µg/mL (≈ 0.107 µM)
8 | COc1ccc2ncnc(OC3CCN(C[C@@H]4CN(c5ccc6c(c5)NC(=O)CS6)C(=O)O4)CC3)c2c1 [Example 20, 6-{(R)-5-[4-(6-methoxy-quinazolin-4-yloxy)-piperidin-1-ylmethyl]-2-oxo-oxazolidin-3-yl}-4H-benzo[1,4]thiazin-3-one] | ≤ 0.031 µg/mL
9 | COc1ccc2ncc(F)c(NC3CN(C[C@@H]4CN(c5ccc6c(c5)NC(=O)CO6)C(=O)O4)C3)c2n1 [Example 23, 6-{(R)-5-[3-(3-fluoro-6-methoxy-[1,5]naphthyridin-4-ylamino)-azetidin-1-ylmethyl]-2-oxo-oxazolidin-3-yl}-4H-benzo[1,4]oxazin-3-one] | ≤ 0.031 µg/mL
10 | COc1ccc2nccc(NC3CN(C[C@@H]4CN(c5ccc6c(c5)NC(=O)CO6)C(=O)O4)C3)c2n1 [Example 24, 6-{(R)-5-[3-(6-methoxy-[1,5]naphthyridin-4-ylamino)-azetidin-1-ylmethyl]-2-oxo-oxazolidin-3-yl}-4H-benzo[1,4]oxazin-3-one] | ≤ 0.031 µg/mL

The remaining lines, values ahead:

Row | MIC | Structure (SMILES)
11 | ≤ 0.031 µg/mL | COc1ccc2ncnc(OC3CCN(C[C@@H]4CN(c5ccc6c(c5)OCCO6)C(=O)O4)C3)c2c1 (mixture of isomers) [Example 4, (R)-3-(2,3-dihydro-benzo[1,4]dioxin-6-yl)-5-[(RS)-3-(6-methoxy-quinazolin-4-yloxy)-pyrrolidin-1-ylmethyl]-oxazolidin-2-one]
12 | ≤ 0.031 µg/mL | COc1ccc2nccc(NC(=O)C3CCN(C[C@@H]4CN(c5ccc6c(c5)NC(=O)CS6)C(=O)O4)C3)c2n1 (mixture of isomers) [Example 8, (RS)-1-[(R)-2-oxo-3-(3-oxo-3,4-dihydro-2H-benzo[1,4]thiazin-6-yl)-oxazolidin-5-ylmethyl]-pyrrolidine-3-carboxylic acid (6-methoxy-[1,5]naphthyridin-4-yl)-amide]
13 | ≤ 0.031 µg/mL | COc1ccc2nccc(/C=C/C3CCN(C[C@@H]4CN(c5ccc6c(c5)NC(=O)CS6)C(=O)O4)C3)c2n1 (mixture of isomers) [Example 9, 6-((R)-5-{(RS)-3-[(E)-2-(6-methoxy-[1,5]naphthyridin-4-yl)-vinyl]-pyrrolidin-1-ylmethyl}-2-oxo-oxazolidin-3-yl)-4H-benzo[1,4]thiazin-3-one]
14 | ≤ 0.031 µg/mL | COc1ccc2nccc(CCC3CCN(C[C@@H]4CN(c5ccc6c(c5)NC(=O)CS6)C(=O)O4)C3)c2n1 (mixture of isomers) [Example 10, 6-((R)-5-{(RS)-3-[2-(6-methoxy-[1,5]naphthyridin-4-yl)-ethyl]-pyrrolidin-1-ylmethyl}-2-oxo-oxazolidin-3-yl)-4H-benzo[1,4]thiazin-3-one]
15 | ≤ 0.031 µg/mL | COc1ccc2ncnc(O[C@@H]3CN(C[C@@H]4CN(c5ccc6c(c5)NC(=O)CS6)C(=O)O4)C[C@H]3n3ccnn3)c2c1 (relative stereo) [Example 16, 6-{(R)-5-[(3R*,4R*)-3-(6-methoxy-quinazolin-4-yloxy)-4-[1,2,3]triazol-1-yl-pyrrolidin-1-ylmethyl]-2-oxo-oxazolidin-3-yl}-4H-benzo[1,4]thiazin-3-one]
16 | ≤ 0.031 µg/mL | COc1ccc2ncnc(O[C@@H]3CN(C[C@@H]4CN(c5ccc6c(c5)NC(=O)CS6)C(=O)O4)C[C@H]3N)c2c1 (relative stereo) [Example 18, 6-{(R)-5-[(3R*,4R*)-3-amino-4-(6-methoxy-quinazolin-4-yloxy)-pyrrolidin-1-ylmethyl]-2-oxo-oxazolidin-3-yl}-4H-benzo[1,4]thiazin-3-one]
17 | ≤ 0.031 µg/mL | COc1ccc2ncnc(O[C@H]3CN(C[C@@H]4CN(c5ccc6c(c5)NC(=O)CS6)C(=O)O4)C[C@H]3O)c2c1 (relative stereo) [Example 21, 6-{(R)-5-[(3R*,4S*)-3-hydroxy-4-(6-methoxy-quinazolin-4-yloxy)-pyrrolidin-1-ylmethyl]-2-oxo-oxazolidin-3-yl}-4H-benzo[1,4]thiazin-3-one]
18 | ≤ 0.031 µg/mL | COc1ccc2ncnc(O[C@@H]3CN(C[C@@H]4CN(c5ccc6c(c5)NC(=O)CS6)C(=O)O4)C[C@H]3O)c2c1 (relative stereo) [Example 22, 6-{(R)-5-[(3R*,4R*)-3-hydroxy-4-(6-methoxy-quinazolin-4-yloxy)-pyrrolidin-1-ylmethyl]-2-oxo-oxazolidin-3-yl}-4H-benzo[1,4]thiazin-3-one]
19 | ≤ 0.031 µg/mL | COc1ccc2nccc(OC3CN(C[C@@H]4CN(c5ccc6c(c5)NC(=O)CS6)C(=O)O4)C3)c2n1 [Example 1, 6-{(R)-5-[3-(6-methoxy-[1,5]naphthyridin-4-yloxy)-azetidin-1-ylmethyl]-2-oxo-oxazolidin-3-yl}-4H-benzo[1,4]thiazin-3-one]
20 | ≤ 0.031 µg/mL | COc1ccc2ncnc(O[C@@H]3CCN(C[C@@H]4CN(c5ccc6c(c5)NC(=O)CS6)C(=O)O4)C3)c2c1 [Example 2, 6-{(R)-5-[(R)-3-(6-methoxy-quinazolin-4-yloxy)-pyrrolidin-1-ylmethyl]-2-oxo-oxazolidin-3-yl}-4H-benzo[1,4]thiazin-3-one]
21 | ≤ 0.031 µg/mL | COc1ccc2ncnc(O[C@H]3CCN(C[C@@H]4CN(c5ccc6c(c5)NC(=O)CS6)C(=O)O4)C3)c2c1 [Example 3, 6-{(R)-5-[(S)-3-(6-methoxy-quinazolin-4-yloxy)-pyrrolidin-1-ylmethyl]-2-oxo-oxazolidin-3-yl}-4H-benzo[1,4]thiazin-3-one]
22 | ≤ 0.031 µg/mL | COc1ccc2ncnc(O[C@H]3C[C@@H](CO)N(C[C@@H]4CN(c5ccc6c(c5)NC(=O)CS6)C(=O)O4)C3)c2c1 [Example 5, 6-{(R)-5-[(2S,4S)-2-hydroxymethyl-4-(6-methoxy-quinazolin-4-yloxy)-pyrrolidin-1-ylmethyl]-2-oxo-oxazolidin-3-yl}-4H-benzo[1,4]thiazin-3-one]
23 | ≤ 0.031 µg/mL | COc1ccc2ncnc(O[C@H]3C[C@@H](CN=[N+]=[N-])N(C[C@@H]4CN(c5ccc6c(c5)NC(=O)CS6)C(=O)O4)C3)c2c1 [Example 6, 6-{(R)-5-[(2S,4S)-2-azidomethyl-4-(6-methoxy-quinazolin-4-yloxy)-pyrrolidin-1-ylmethyl]-2-oxo-oxazolidin-3-yl}-4H-benzo[1,4]thiazin-3-one]
24 | ≤ 0.031 µg/mL | COc1ccc2nccc(NC(=O)C3CN(C[C@@H]4CN(c5ccc6c(c5)NC(=O)CS6)C(=O)O4)C3)c2n1 [Example 7, 1-[(R)-2-oxo-3-(3-oxo-3,4-dihydro-2H-benzo[1,4]thiazin-6-yl)-oxazolidin-5-ylmethyl]-azetidine-3-carboxylic acid (6-methoxy-[1,5]naphthyridin-4-yl)-amide]
25 | ≤ 0.031 µg/mL | COc1cnc2cccc(C=C3CCN(C[C@@H]4CN(c5ccc6c(c5)NC(=O)CS6)C(=O)O4)CC3)c2n1 [Example 12, 6-{(R)-5-[4-(3-methoxy-quinoxalin-5-ylmethylene)-piperidin-1-ylmethyl]-2-oxo-oxazolidin-3-yl}-4H-benzo[1,4]thiazin-3-one]
26 | ≤ 0.031 µg/mL | COc1ccc2nccc(NCC3CN(C[C@@H]4CN(c5ccc6c(c5)NC(=O)CS6)C(=O)O4)C3)c2n1 [Example 14, 6-((R)-5-{3-[(6-methoxy-[1,5]naphthyridin-4-ylamino)-methyl]-azetidin-1-ylmethyl}-2-oxo-oxazolidin-3-yl)-4H-benzo[1,4]thiazin-3-one]
